Experimental data taken from ChEMBL document CHEMBL4706678, “Trivalent sulfonium compounds (TSCs): Tetrahydrothiophene-based amphiphiles exhibit similar antimicrobial activity to analogous ammonium-based amphiphiles” (Bioorg Med Chem Lett, 2021).

Columns and labels:
Pseudomonas aeruginosa = assay: Antimicrobial activity against Pseudomonas aeruginosa PAO1 assessed as inhibition of microbial growth; type: functional
Staphylococcus aureus [1] = assay: Antimicrobial activity against community acquired methicillin-resistant Staphylococcus aureus USA300 assessed as inhibition of microbial growth; type: functional
Staphylococcus aureus [2] = assay: Antimicrobial activity against methicillin-susceptible Staphylococcus aureus SH1000 assessed as inhibition of microbial growth; type: functional
Erythrocyte = assay: Hemolytic activity against human RBC assessed as concentration required to cause >20% hemolysis; type: ADME, cell-based
Staphylococcus aureus [3] = assay: microbe, parasite or virus in culture; type: functional; settings: ATCC 33591
Description: Antimicrobial activity against hospital acquired methicillin-resistant Staphylococcus aureus ATCC 33591 assessed as inhibition of microbial growth

Escherichia coli = assay: Antimicrobial activity against Escherichia coli MC4100 assessed as inhibition of microbial growth; type: functional
Enterococcus faecalis = assay: Antimicrobial activity against Enterococcus faecalis OG1RF assessed as inhibition of microbial growth; type: functional

SMILES	MIC (Pseudomonas aeruginosa) [µM]	MIC (Staphylococcus aureus [1]) [µM]	MIC (Staphylococcus aureus [2]) [µM]	HC20 (Erythrocyte) [µM]	MIC (Staphylococcus aureus [3]) [µM]	MIC (Escherichia coli) [µM]	MIC (Enterococcus faecalis) [µM]
C[N+]1(CCCCCCCCCC[N+]2(C)CCCC2)CCCC1.[Br-].[Br-]	> 250	> 250	> 250	125	> 250	> 250	> 250
CCCCCCCCCCCCCCCC[N+]1(C)CCCC1.[Br-]	> 250	2	4	16	8	125	> 250
CCCCCCCCCCCCCC[N+]1(C)CCCC1.[Br-]	> 250	8	4	32	16	250	> 250
C[N+]1(CCCCCCCCCCCC[N+]2(C)CCCC2)CCCC1.[Br-].[Br-]	> 250	> 250	> 250	125	> 250	> 250	> 250
CCCCCCCCCCCC[N+]1(C)CCCC1.[Br-]	> 250	32	32	125	125	> 250	> 250
CCCCCCCCCCCCCCCC[n+]1ccccc1.[Cl-]	–	–	–	8	–	–	–
C(CCCC[S+]1CCCC1)CCC[S+]1CCCC1.[I-].[I-]	> 250	> 250	> 250	125	> 250	> 250	> 250
CCCCCCCCCCCC[S+]1CCCC1.[I-]	> 250	16	16	125	125	> 250	> 250
CCCCCCCCCCCCCC[S+]1CCCC1.[I-]	> 250	4	4	16	32	250	> 250
CCCCCCCC[S+]1CCCC1.[I-]	> 250	> 250	> 250	125	> 250	> 250	> 250
CCCCCCCCCC[N+]1(C)CCCC1.[Br-]	> 250	> 250	> 250	250	> 250	> 250	> 250
CCCCCCCCCCC[N+]1(C)CCCC1.[Br-]	> 250	125	125	125	> 250	> 250	> 250
CCCCCCCCCCCCCCCCCC[S+]1CCCC1.[I-]	250	4	1	16	8	63	> 250
C(CCCCC[S+]1CCCC1)CCCC[S+]1CCCC1.[I-].[I-]	> 250	250	250	125	> 250	> 250	> 250
CCCCCCCC[N+]1(C)CCCC1.[Br-]	> 250	> 250	> 250	125	> 250	> 250	> 250
CCCCCCCCCCCCC[N+]1(C)CCCC1.[Br-]	> 250	16	8	63	63	> 250	> 250
C(CCCCCC[S+]1CCCC1)CCCCC[S+]1CCCC1.[I-].[I-]	> 250	250	250	250	> 250	> 250	> 250
CCCCCCCCCCC[S+]1CCCC1.[I-]	> 250	250	125	125	250	> 250	> 250
CCCCCCCCCCCCCCCCCC[N+]1(C)CCCC1.[Br-]	250	4	2	16	8	63	> 250
CCCCCCCCCCCCC[S+]1CCCC1.[I-]	> 250	32	8	63	125	> 250	> 250
CCCCCCCCCC[S+]1CCCC1.[I-]	> 250	250	250	125	> 250	> 250	> 250
C[N+]1(CCCCCCCC[N+]2(C)CCCC2)CCCC1.[Br-].[Br-]	> 250	> 250	> 250	125	> 250	> 250	> 250
CCCCCCCCCCCCCCCC[S+]1CCCC1.[I-]	> 250	4	2	16	8	125	> 250
